Assay results published in ChEMBL document CHEMBL5505961, “RIPK1 inhibitors: A key to unlocking the potential of necroptosis in drug development” (Eur J Med Chem, 2024).

Legend:
[1] = system: Jurkat; experiment: cells; settings: Homo sapiens, 48 h
[2] = system: Jurkat; experiment: cells; settings: Homo sapiens, 24 h
[3] = target: T1, Eukaryotic translation initiation factor 2-alpha kinase 3 (Homo sapiens, UniProt Q9NZJ5)
T1 sequence (Q9NZJ5 whole entry): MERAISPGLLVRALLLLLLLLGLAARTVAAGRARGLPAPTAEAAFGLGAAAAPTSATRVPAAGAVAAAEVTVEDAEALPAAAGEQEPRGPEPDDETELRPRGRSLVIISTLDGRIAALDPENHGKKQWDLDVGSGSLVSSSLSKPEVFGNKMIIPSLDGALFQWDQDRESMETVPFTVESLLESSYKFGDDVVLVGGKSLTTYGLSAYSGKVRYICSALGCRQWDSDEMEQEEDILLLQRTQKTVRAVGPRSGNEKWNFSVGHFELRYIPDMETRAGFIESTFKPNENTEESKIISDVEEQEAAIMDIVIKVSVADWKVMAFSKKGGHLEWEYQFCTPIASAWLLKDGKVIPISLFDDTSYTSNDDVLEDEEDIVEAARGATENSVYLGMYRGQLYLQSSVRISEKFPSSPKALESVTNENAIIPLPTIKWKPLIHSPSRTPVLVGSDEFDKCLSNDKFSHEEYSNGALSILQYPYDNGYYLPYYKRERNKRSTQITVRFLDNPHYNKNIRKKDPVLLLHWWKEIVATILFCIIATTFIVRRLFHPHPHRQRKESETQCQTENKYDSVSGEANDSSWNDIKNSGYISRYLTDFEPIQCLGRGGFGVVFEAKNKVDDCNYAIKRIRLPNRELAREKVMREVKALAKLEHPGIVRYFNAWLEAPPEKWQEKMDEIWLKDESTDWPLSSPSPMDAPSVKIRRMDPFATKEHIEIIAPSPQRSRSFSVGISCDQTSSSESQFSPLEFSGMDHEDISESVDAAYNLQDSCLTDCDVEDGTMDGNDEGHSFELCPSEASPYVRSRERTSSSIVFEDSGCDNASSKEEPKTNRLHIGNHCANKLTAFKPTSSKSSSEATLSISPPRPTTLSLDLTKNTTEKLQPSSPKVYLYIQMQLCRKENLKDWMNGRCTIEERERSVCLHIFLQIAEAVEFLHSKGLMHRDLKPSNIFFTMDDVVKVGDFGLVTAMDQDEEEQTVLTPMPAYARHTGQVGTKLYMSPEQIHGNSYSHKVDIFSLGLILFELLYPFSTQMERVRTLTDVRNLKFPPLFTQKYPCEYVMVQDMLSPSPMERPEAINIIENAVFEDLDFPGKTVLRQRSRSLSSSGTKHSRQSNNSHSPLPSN

[4] = target: T2, Receptor-interacting serine/threonine-protein kinase 1 (Homo sapiens, UniProt Q13546)
T2 sequence (Q13546 whole entry): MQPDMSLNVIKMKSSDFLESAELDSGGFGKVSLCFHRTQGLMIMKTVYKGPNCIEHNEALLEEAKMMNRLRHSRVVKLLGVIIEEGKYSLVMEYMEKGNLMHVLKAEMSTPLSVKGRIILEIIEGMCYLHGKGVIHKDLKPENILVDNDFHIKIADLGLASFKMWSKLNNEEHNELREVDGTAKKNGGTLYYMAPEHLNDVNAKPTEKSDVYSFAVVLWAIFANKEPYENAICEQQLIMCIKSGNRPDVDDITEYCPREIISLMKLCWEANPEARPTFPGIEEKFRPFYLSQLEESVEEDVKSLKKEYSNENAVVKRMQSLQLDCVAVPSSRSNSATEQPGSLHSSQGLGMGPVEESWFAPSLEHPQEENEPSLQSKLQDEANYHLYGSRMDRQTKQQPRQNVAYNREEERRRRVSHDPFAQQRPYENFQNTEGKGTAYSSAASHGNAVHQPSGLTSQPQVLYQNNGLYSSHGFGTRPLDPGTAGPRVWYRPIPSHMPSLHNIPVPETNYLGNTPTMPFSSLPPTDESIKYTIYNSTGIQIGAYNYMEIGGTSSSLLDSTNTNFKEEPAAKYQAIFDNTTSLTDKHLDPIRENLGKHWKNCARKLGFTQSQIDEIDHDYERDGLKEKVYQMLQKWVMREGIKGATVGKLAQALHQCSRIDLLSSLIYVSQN

[5] = in vitro; settings: mouse, L929 cells
[6] = system: MEF; experiment: cells; settings: Mus musculus, 48 h
[7] = system: U-937; experiment: cells; settings: Homo sapiens, U-937, 48 h
[8] = system: HT-29; experiment: cells; settings: Homo sapiens, HT-29, 48 h
[9] = clinical; settings: human
[10] = target: T2, Receptor-interacting serine/threonine-protein kinase 1; remark: listed apart in the source
[11] = cells; settings: Homo sapiens, HT-29, 1 h
[12] = target: T2, Receptor-interacting serine/threonine-protein kinase 1; experiment: biochemical
[13] = target: T2, Receptor-interacting serine/threonine-protein kinase 1; remark: listed apart in the source
[14] = system: HT-29; experiment: cells; settings: Homo sapiens, HT-29, 24 h
[15] = system: L929; experiment: cells; settings: Mus musculus, L929, 24 h
[16] = in vitro; settings: mouse, liver microsomes
[17] = target: T2, Receptor-interacting serine/threonine-protein kinase 1; remark: listed apart in the source
[18] = target: T3, Aurora kinase A (Homo sapiens, UniProt O14965)
T3 sequence (O14965 whole entry): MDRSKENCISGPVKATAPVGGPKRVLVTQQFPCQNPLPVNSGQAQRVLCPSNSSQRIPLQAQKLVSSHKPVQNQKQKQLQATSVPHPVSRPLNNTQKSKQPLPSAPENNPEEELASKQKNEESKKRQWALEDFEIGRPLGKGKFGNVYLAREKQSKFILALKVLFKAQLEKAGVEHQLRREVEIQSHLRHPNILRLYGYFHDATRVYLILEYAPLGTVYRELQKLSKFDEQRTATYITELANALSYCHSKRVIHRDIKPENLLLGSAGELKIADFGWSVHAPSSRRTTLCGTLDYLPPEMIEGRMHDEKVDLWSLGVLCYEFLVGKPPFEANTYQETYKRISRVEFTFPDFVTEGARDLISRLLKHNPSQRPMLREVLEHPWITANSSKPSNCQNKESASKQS

[19] = system: HT-29; experiment: cells; settings: Homo sapiens, HT-29, 24 h; remark: listed apart in the source
[20] = target: T1, Eukaryotic translation initiation factor 2-alpha kinase 3; remark: listed apart in the source
[21] = target: T2, Receptor-interacting serine/threonine-protein kinase 1; remark: listed apart in the source
[22] = target: T4, Receptor-interacting serine/threonine-protein kinase 3 (Homo sapiens, UniProt Q9Y572)
T4 sequence (Q9Y572 whole entry): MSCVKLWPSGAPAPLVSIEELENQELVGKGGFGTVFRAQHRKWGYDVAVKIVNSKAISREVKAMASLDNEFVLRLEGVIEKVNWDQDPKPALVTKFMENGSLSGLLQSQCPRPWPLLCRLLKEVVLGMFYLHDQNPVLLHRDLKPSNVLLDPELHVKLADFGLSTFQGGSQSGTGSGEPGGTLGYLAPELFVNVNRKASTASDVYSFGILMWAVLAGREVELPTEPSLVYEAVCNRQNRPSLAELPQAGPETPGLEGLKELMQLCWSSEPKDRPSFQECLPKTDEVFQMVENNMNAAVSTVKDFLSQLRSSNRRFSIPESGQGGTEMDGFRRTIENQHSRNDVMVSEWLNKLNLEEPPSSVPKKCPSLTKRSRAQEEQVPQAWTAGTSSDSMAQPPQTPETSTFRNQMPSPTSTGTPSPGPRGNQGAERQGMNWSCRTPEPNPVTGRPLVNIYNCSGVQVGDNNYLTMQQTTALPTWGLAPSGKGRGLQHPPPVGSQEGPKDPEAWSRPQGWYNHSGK

[23] = system: Jurkat; experiment: cells; settings: Homo sapiens
[24] = system: HT-29; experiment: cells; settings: Homo sapiens
[25] = target: T2, Receptor-interacting serine/threonine-protein kinase 1; remark: listed apart in the source
[26] = system: U-937; experiment: cells; settings: Homo sapiens
[27] = system: HT-29; experiment: cells; settings: Homo sapiens; remark: listed apart in the source
[28] = system: TOV21G; experiment: cells; settings: Homo sapiens
[29] = target: Receptor-interacting serine/threonine-protein kinase 2 (Homo sapiens, UniProt O43353)
Chain of Receptor-interacting serine/threonine-protein kinase 2 (O43353 whole entry): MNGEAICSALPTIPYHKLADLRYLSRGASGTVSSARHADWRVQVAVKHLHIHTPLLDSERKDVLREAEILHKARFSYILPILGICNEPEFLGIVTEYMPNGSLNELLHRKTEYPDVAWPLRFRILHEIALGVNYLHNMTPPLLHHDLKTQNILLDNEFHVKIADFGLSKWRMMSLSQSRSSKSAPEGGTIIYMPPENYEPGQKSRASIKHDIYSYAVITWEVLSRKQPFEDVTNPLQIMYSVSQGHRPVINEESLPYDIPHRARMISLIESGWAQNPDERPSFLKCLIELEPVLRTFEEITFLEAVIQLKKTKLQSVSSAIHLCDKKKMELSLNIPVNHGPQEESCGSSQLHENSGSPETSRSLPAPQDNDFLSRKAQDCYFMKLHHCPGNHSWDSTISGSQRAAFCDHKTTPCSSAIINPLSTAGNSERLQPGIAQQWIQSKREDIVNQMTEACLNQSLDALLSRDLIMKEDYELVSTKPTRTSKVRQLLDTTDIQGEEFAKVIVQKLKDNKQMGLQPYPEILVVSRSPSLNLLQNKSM

[30] = target: Indoleamine 2,3-dioxygenase 1 (Homo sapiens, UniProt P14902); experiment: Inhibition of IDO (unknown origin)
Chain of Indoleamine 2,3-dioxygenase 1 (P14902 whole entry): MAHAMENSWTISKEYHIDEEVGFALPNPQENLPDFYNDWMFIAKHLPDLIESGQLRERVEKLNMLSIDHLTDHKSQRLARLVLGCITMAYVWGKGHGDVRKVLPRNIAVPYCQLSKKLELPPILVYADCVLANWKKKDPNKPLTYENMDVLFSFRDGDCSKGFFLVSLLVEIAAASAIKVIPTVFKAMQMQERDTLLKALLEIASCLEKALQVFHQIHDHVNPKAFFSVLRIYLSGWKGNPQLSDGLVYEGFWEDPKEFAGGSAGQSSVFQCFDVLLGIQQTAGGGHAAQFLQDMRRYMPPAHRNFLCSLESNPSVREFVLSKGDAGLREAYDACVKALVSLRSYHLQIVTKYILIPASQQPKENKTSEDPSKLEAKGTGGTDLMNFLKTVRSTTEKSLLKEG

[31] = system: Jurkat; experiment: Antiproliferative activity against human Jurkat cells assessed as reduction in cell viability by MTT assay; type: functional, cell-based
[32] = system: HT-29; experiment: cells; settings: Homo sapiens, HT-29, 1 h
[33] = target: T5, Regulator of chromosome condensation (Homo sapiens, UniProt P18754)
T5 sequence (P18754 whole entry): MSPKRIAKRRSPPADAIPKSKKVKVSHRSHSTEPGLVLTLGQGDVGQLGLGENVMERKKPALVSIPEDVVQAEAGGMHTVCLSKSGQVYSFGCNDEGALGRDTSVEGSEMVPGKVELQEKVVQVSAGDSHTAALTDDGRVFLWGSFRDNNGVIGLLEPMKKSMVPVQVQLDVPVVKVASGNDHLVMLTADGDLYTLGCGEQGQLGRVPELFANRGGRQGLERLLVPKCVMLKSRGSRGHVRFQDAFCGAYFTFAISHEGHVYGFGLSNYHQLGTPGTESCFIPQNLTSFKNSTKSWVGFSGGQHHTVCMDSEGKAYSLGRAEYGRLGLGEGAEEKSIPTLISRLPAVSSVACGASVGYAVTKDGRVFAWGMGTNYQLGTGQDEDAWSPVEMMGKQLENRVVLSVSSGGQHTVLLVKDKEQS

[34] = target: T2, Receptor-interacting serine/threonine-protein kinase 1; remark: listed apart in the source
[35] = target: T4, Receptor-interacting serine/threonine-protein kinase 3; remark: listed apart in the source

## Cc1ccc(C2CC(=O)NC(SCC(=O)Nc3nccs3)=C2C#N)cc1 (stereo not drawn)
[1]
  IC50: 740 nM

## CN1C(=O)NC(Cc2c[nH]c3ccccc23)C1=O (stereo not drawn)
[2]
  IC50: 210 nM

## Cc1cccc(CC(=O)N2CCc3cc(-c4cn(C)c5ncnc(N)c45)ccc32)n1
[3]
  IC50: 9.7 nM
[4]
  IC50: 69.1 nM

## Cn1cc(-c2ccc3c(c2)CCN3C(=O)Cc2cccc(C(F)(F)F)n2)c2c(N)ncnc21
[3]
  IC50: 3.8 nM
[4]
  IC50: 18.2 nM

## CC(=O)Nc1nc2ccc(-c3cnc(Cl)c(NC(=O)Cc4ccccc4)c3)cc2s1
[5]
  EC50 at 48 h: 760 nM
[4]
  IC50: 18.2 nM
[6]
  EC50: 950 nM
[7]
  EC50: 1330 nM
[8]
  EC50: 1200 nM

## CN1C(=O)N[C@@H](Cc2c[nH]c3c(Cl)cccc23)C1=O
[9]
  half-life: 1 h

## CN1C(=O)C(Cc2c[nH]c3c(Cl)cccc23)NC1=S (stereo not drawn)
[2]
  IC50: 180 nM

## Cc1cc(Nc2cc(N3CCN(C)CC3)nc(Nc3ccc(NC(=O)C4CC4)cc3)n2)n[nH]1
[10]
  IC50: 170 nM

## CCCCNc1nc2ccc([N+](=O)[O-])cc2[nH]1
[11]
  EC50: 1700 nM

## O=C(c1ccc(-c2cc3cccnc3[nH]2)cc1)N1CCOCC1
[12]
  IC50: 88000 nM

## O=C(Nc1cn2cc(-c3cnc4c(c3)N(C(=O)OC3CCOCC3)CC4)ccc2n1)C1CC1
[13]
  Kd: 8.7 nM

## O=C(NC1CCOCC1)c1nsc2ncc(-c3ccc4nc(NC(=O)C5CC5)sc4c3)cc12
[14]
  EC50: 5 nM
[15]
  EC50: 1.9 nM
[16]
  half-life: > 1.5 h
[17]
  IC50: 5.8 nM
[13]
  Kd: 13 nM

## Cc1cc(Nc2cc(N3CCNCC3)nc(Nc3ccc(NC(=O)C4CC4)cc3)n2)n[nH]1
[18]
  IC50: 430 nM
[10]
  IC50: 160 nM

## O=[N+]([O-])c1ccn(Cc2ccc(Cl)cc2Cl)n1
[19]
  EC50: 1050 nM

## Cc1nnsc1C(=O)N[C@H](C)c1c(F)cccc1Cl
[9]
  half-life: 0.542 h
[2]
  EC50: 400 nM

## CC(=O)NC1=NC2C=CC(c3cnc4ccn(C(=O)OC5CCCCC5)c4c3)=CC2S1 (stereo not drawn)
[14]
  EC50: 58 nM
[15]
  EC50: 26 nM

## Cn1cc(-c2ccc3c(c2)CCN3C(=O)Cc2ccc(C(F)(F)F)cn2)c2c(N)ncnc21
[20]
  IC50: > 5000 nM
[21]
  IC50: 2.9 nM

## CN1C(=O)[C@@H](Cc2c[nH]c3c(Cl)c(F)ccc23)N(C=O)C1=O
[22]
  IC50: 366 nM
[23]
  IC50: 185 nM

## O=C(NCCc1ccccc1Cl)c1cn(-c2ccccc2)nn1
[17]
  IC50: 250 nM

## C[C@@H](Oc1cc(-c2cnn(C3CCNCC3)c2)cnc1N)c1c(Cl)ccc(F)c1Cl [CRIZOTINIB]
[23]
  IC50: 2380 nM

## COc1cc(CCc2cc(NC(=O)c3ccc(N4C[C@@H](C)N[C@@H](C)C4)cc3)n[nH]2)cc(OC)c1 [FEXAGRATINIB]
[24]
  EC50: 19 nM
[25]
  IC50: 12 nM
[26]
  EC50: 31 nM
[27]
  EC50: 19 nM
[22]
  IC50: 10000 nM
[28]
  EC50: 52 nM
[29]
  IC50: 259 nM

## Cc1ccc(F)c(NC(=O)Nc2ccc(-c3cccc4[nH]nc(N)c34)cc2)c1 [LINIFANIB]
[17]
  IC50: 95 nM

## CN1C(=O)C(Cc2c[nH]c3ccccc23)NC1=S (stereo not drawn) [NECROSTATIN]
[30]
  IC50: 39100 nM
[31]
  EC50: 540 nM

## Cc1ccc(Nc2nccc(N(C)c3ccc4c(C)n(C)nc4c3)n2)cc1S(N)(=O)=O [PAZOPANIB]
[23]
  EC50: 254 nM

## COc1cc(/C=C/C(=O)N2CCC=CC2=O)cc(OC)c1OC [PIPLARTINE]
[32]
  EC50: 540 nM
[11]
  EC50: 6410 nM

## Cc1ccc(C(=O)Nc2ccc(CN3CCN(C)CC3)c(C(F)(F)F)c2)cc1C#Cc1cnc2cccnn12 [PONATINIB]
[24]
  EC50: 50 nM
[23]
  EC50: 89 nM

## CNC(=O)c1cc(Oc2ccc(NC(=O)Nc3cc(C(C)(C)C)nn3-c3ccc4ncccc4c3)c(F)c2)ccn1 [REBASTINIB]
[33]
  EC50: 18.7 nM
[34]
  IC50: 6.49 nM
[35]
  IC50: 18.6 nM
